Structures can show the parent of a compound that is named as a salt.
| Structure (SMILES) | melting point |
| --- | --- |
| Fc1ccc(N=C(NC(=Nc2ccc(F)cc2)N2CCCCCC2)c2c(F)cccc2F)cc1 (as salt: hydrochloride) [Example 57, N-[azepan-1-yl-(4-fluoro-phenylimino)-methyl]-2,6-difluoro-N′-(4-fluoro-phenyl)-benzamidine] | 216 to 218 °C |
| Cc1cccc(C)c1C(=Nc1ccc(F)cc1)NC(=Nc1ccccc1)N1CCCCCC1 (as salt: hydrochloride) [Example 53, N-(azepan-1-yl-phenylimino-methyl)-N′-(4-fluoro-phenyl)-2,6-dimethyl-benzamidine] | 243 to 245 °C |
| COc1ccc(N=C(NC(=Nc2ccccc2)N2CCCCCC2)c2c(C)cccc2C)cc1 (as salt: hydrochloride) [Example 68, N-(azepan-1-yl-phenylimino-methyl)-N′-(4-methoxy-phenyl)-2,6-dimethyl-benzamidine] | 228 to 230 °C (dec.) |
| Cc1cccc(C)c1C(=NC(=Nc1cccnc1)N1CCCCC1C)Nc1ccc(F)cc1 (stereo not shown) (as salt: hydrochloride) [Example 86, N-(4-fluoro-phenyl)-2,6-dimethyl-N′-[(2-methyl-piperidin-1-yl)-(pyridin-3-ylimino)-methyl]-benzamidine] | 207 to 210 °C |
| Cc1cccc(C)c1C(=NC(=Nc1ccc(F)cc1)N1CCCCC1C)Nc1ccc(F)cc1 (stereo not shown) (as salt: hydrochloride) [Example 43, N-(4-fluoro-phenyl)-N′-[(4-fluoro-phenylimino)-(2-methyl-piperidin-1-yl)-methyl]-2,6-dimethyl-benzamidine] | 162 to 164 °C (dec.) |
| Cc1ccccc1C(=NC(=Nc1ccccc1)N1CCC(=O)CC1C)Nc1ccc(F)cc1 (stereo not shown) (as salt: hydrochloride) [Example 69, N-(4-fluoro-phenyl)-2-methyl-N′-[(2-methyl-4-oxo-piperidin-1-yl)-phenylimino-methyl]-benzamidine] | > 143 °C |
| Cc1cccc(C)c1C(=Nc1ccc(F)cc1)NC(=NC1CC1)N1CCCCO1 (as salt: hydrochloride) [Example 104, N-(cyclopropylimino-[1,2]oxazinan-2-yl-methyl)-N′-(4-fluoro-phenyl)-2,6-dimethyl-benzamidine] | 229 to 231 °C (dec.) |
| Cc1ccccc1C(=NC(=Nc1ccccc1)C1(C)CCCCC1)Nc1ccc(F)cc1 [Example 11, N-(4-Fluoro-phenyl)-2-methyl-N′-[(1-methyl-cyclohexyl)-phenylimino-methyl]-benzamidine] | 210 to 211 °C |
| Cc1cccc(C)c1C(=NC(=Nc1ccccc1)N1CCOCC1)Nc1ccc(F)cc1 (as salt: hydrochloride) [Example 76, N-(4-fluoro-phenyl)-2,6-dimethyl-N′-(morpholin-4-yl-phenylimino-methyl)-benzamidine] | 249 to 251 °C (dec.) |
| CC1CCCCN1C(N=C(Nc1ccc(F)cc1)c1c(Cl)cccc1Cl)=Nc1ccccc1 (stereo not shown) (as salt: hydrochloride) [Example 45, 2,6-dichloro-N-(4-fluoro-phenyl)-N′-[(2-methyl-piperidin-1-yl)-phenylimino-methyl]-benzamidine] | 153 to 155 °C (dec.) |
| Cc1ccccc1C(=NC(=Nc1ccccc1)N1CCCC1)Nc1ccccc1 (as salt: hydrochloride) [Example 20, 2-methyl-N-phenyl-N′-(phenylimino-pyrrolidin-1-yl-methyl)-benzamidine] | 191 to 192 °C |
| Cc1ccccc1C(=NC(=Nc1ccncc1)N1CCCCC1C)Nc1ccc(F)cc1 (stereo not shown) (as salt: nitrate) [Example 40, N-(4-fluoro-phenyl)-2-methyl-N′-[(2-methyl-piperidin-1-yl)-(pyridin-4-ylimino)-methyl]-benzamidine] | 209 to 210 °C (dec.) |
| Fc1ccccc1N=C(NC(=Nc1ccccc1)c1ccccc1)N1CCCC1 (as salt: hydrochloride) [Example 27, N-[(2-fluoro-phenylimino)-pyrrolidin-1-yl-methyl]-N′-phenyl-benzamidine] | 254 to 255 °C |
| Cc1cccc(C)c1C(=Nc1ccc(F)cc1)NC(=NC1CC1)N1CCCCC1C (stereo not shown) (as salt: hydrochloride) [Example 103, N-[cyclopropylimino-(2-methyl-piperidin-1-yl)-methyl]-N′-(4-fluoro-phenyl)-2,6-dimethyl-benzamidine] | 219 to 220 °C |
| CCC1CCCCN1C(=Nc1ccccc1)NC(=Nc1ccc(F)cc1)c1c(C)cccc1C (stereo not shown) (as salt: hydrochloride) [Example 58, N-[(2-ethyl-piperidin-1-yl)-phenylimino-methyl]-N′-(4-fluoro-phenyl)-2,6-dimethyl-benzamidine] | 137 to 139 °C (dec.) |
| Cc1ccccc1C(=NC(=Nc1ccccc1)N1CCCC(O)C1)Nc1ccc(F)cc1 (stereo not shown) (as salt: hydrochloride) [Example 66, N-(4-fluoro-phenyl)-N′-[(3-hydroxy-piperidin-1-yl)-phenylimino-methyl]-2-methyl-benzamidine] | > 150 °C |
| Cc1ccccc1C(=Nc1ccc(F)cc1)NC(=Nc1ccccc1Cl)N1CCCCC1C (stereo not shown) (as salt: hydrochloride) [Example 79, N-[(2-chloro-phenylimino)-(2-methyl-piperidin-1-yl)-methyl]-N′-(4-fluoro-phenyl)-2-methyl-benzamidine] | 208 to 210 °C |

| Structure (SMILES) | melting point |
| --- | --- |
| c1ccc(N=C(NC(=Nc2ccccc2)N2CCCCCC2)c2ccccc2)cc1 (as salt: hydroiodid) [Example 17, N-(azepan-1-yl-phenylimino-methyl)-N′-phenyl-benzamidine] | 228 to 229 °C |
| Cc1ccccc1C(=NC(=Nc1ccccc1)N1CCC(=O)CC1)Nc1ccc(F)cc1 (as salt: hydrochloride) [Example 8, N-(4-Fluoro-phenyl)-2-methyl-N′-[(4-oxo-piperidin-1-yl)-phenylimino-methyl]-benzamidine] | 234 to 235 °C |
| Cc1ccccc1C(=CC(=NC1CCCCC1)N1CCCCO1)Nc1ccc(F)cc1 (as salt: hydrochloride) [Example 95, (3-cyclohexylimino-3-[1,2]oxazinan-2-yl-1-o-tolyl-propenyl)-(4-fluoro-phenyl)-amine] | 171 to 172 °C |
| CC1CCCN(C(=Nc2ccccc2)NC(=Nc2ccccc2)c2ccccc2)C1 (stereo not shown) (as salt: hydroiodid) [Example 23, N-[(3-methyl-piperidin-1-yl)-phenylimino-methyl]-N′-phenyl-benzamidine] | 179 to 182 °C (dec.) |
| Fc1ccc(N=C(NC(=Nc2ccccc2)c2ccccc2)N2CCCC2)cc1 (as salt: hydrochloride) [Example 25, N-[(4-fluoro-phenylimino)-pyrrolidin-1-yl-methyl]-N′-phenyl-benzamidine] | 242 to 243 °C |
| Cc1cccc(C)c1C(=Nc1ccc(F)cc1)NC(=Nc1ccccc1)N1C(C)CCCC1C (stereo not shown) (as salt: hydrochloride) [Example 48, N-[(2,6-dimethyl-piperidin-1-yl)-phenylimino-methyl]-N′-(4-fluoro-phenyl)-2,6-dimethyl-benzamidine] | 172 to 174 °C (dec.) |
| CC1CCCCN1C(=Nc1ccccc1)NC(=Nc1ccc(F)cc1)c1ccccc1Cl (stereo not shown) (as salt: hydrochloride) [Example 37, N-[(2-chloro-phenyl)-(4-fluoro-phenylimino)-methyl]2-methyl-N′-phenyl-piperidine-1-carboxamidine] | 145 to 147 °C |
| Cc1cccc(C)c1C(=Nc1ccc(F)cc1)NC(=Nc1cccc(N)c1)N1CCCCC1C (stereo not shown) (as salt: hydrochloride) [Example 70, N-[(3-amino-phenylimino)-(2-methyl-piperidin-1-yl)-methyl]-N′-(4-fluoro-phenyl)-2,6-dimethyl-benzamidine] | 210 to 213 °C |
| C(=C(Nc1ccccc1)c1ccccc1)C(=Nc1ccccc1)N1CCCC1 (as salt: nitrate) [Example 87, (3-phenylimino-3-pyrrolidin-1-yl-1-phenyl-propenyl)-phenylamine] | 184 to 186 °C |
| Fc1ccc(N=C(NC(=Nc2ccccc2)N2CCCCCC2)c2c(F)cccc2F)cc1 (as salt: nitrate) [Example 56, N-(azepan-1-yl-phenylimino-methyl)-2,6-difluoro-N′-(4-fluoro-phenyl)-benzamidine] | 171 to 173 °C |
| Cc1ccccc1C(=CC(=Nc1ccccc1)N1CCCCO1)Nc1ccc(F)cc1 (as salt: nitrate) [Example 91, (3-phenylimino-3-[1,2]oxazinan-2-yl-1-o-tolyl-propenyl)-(4-fluoro-phenyl)-amine] | 151 to 153 °C |
| Fc1ccc(N=C(NC(=Nc2ccccc2)N2CCCCCC2)c2ccccc2)cc1 (as salt: hydroiodid) [Example 19, N-(azepan-1-yl-phenylimino-methyl)-N′-(4-fluoro-phenyl)-benzamidine] | > 228 °C (dec.) |
| Cc1ccccc1C(=NC(=Nc1ccccc1F)N1CCC(O)CC1)Nc1ccc(F)cc1 (as salt: hydrochloride) [Example 36, N-(4-fluoro-phenyl)-N′-[(2-fluoro-phenylimino)-(4-hydroxy-piperidin-1-yl)-methyl]-2-methyl-benzamidine] | 174 to 175 °C |
| Cc1cccc(C)c1C(=NC(=Nc1ccccc1)N1CCC(=O)CC1)Nc1ccc(F)cc1 (as salt: hydrochloride) [Example 63, N-(4-fluoro-phenyl)-2,6-dimethyl-N′-[(4-oxo-piperidin-1-yl)-phenylimino-methyl]-benzamidine] | 228 to 229 °C (dec.) |
| CC1CCN(C(=Nc2ccccc2)NC(=Nc2ccccc2)c2ccccc2)CC1 (as salt: hydroiodid) [Example 21, N-[(4-methyl-piperidin-1-yl)-phenylimino-methyl]-N′-phenyl-benzamidine] | 192 to 195 °C (dec.) |
| Cc1cccc(C)c1C(=NC(=Nc1ccccc1)N1CCCCO1)Nc1ccc(F)cc1 (as salt: hydrochloride) [Example 61, N-(4-fluoro-phenyl)-2,6-dimethyl-N′-([1,2]oxazinan-2-yl-phenylimino-methyl)-benzamidine] | 212 to 214 °C (dec.) |
| Cc1cccc(C)c1C(=NC(=Nc1ccccc1)N1CCC(O)CC1C)Nc1ccc(F)cc1 (stereo not shown) (as salt: hydrochloride) [Example 82, N-(4-fluoro-phenyl)-N′-[(4-hydroxy-2-methyl-piperidin-1-yl)-phenylimino-methyl]-2,6-dimethyl-benzamidine] | 169 to 172 °C |

Reference: patent US6911477B2, “Muscarinic receptor agonists” (Pfizer Inc., priority 1996, dated 2005)
